{"source": "patent US9944602B2", "about": "“Piperidinone herbicides” (E. I. DU PONT DE NEMOURS AND COMPANY, priority 2014, dated 2018)", "format_in_all_cases": "in vivo", "key": {"[1]": {"test_system": "galium (catchweed bedstraw, Galium aparine)", "test": "Test A postemergence galium", "settings": "0 to 100 scale, 0 is no effect, 100 is complete control", "summary_of_the_method": "(§1)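 Scores are visual injury ratings on a 0–100 scale (100 = complete control) taken about 10 d after treatment, relative to untreated greenhouse controls. Preemergence: directed soil spray over planted seeds in loam/sand; postemergence: spray onto one- to two-leaf plants 2–10 cm high; surfactant-containing solvent formulation.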"}, "[2]": {"test_system": "barnyardgrass (Echinochloa crus-galli)", "test": "Test A postemergence barnyardgrass", "settings": "0 to 100 scale, 0 is no effect, 100 is complete control", "summary_of_the_method": "as §1"}, "[3]": {"test_system": "ducksalad (Heteranthera limosa)", "test": "Test B flooded paddy test ducksalad", "settings": "Table B, Flood, 500 g ai/ha, scale 0 to 100", "summary_of_the_method": "(§2)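 Plants grown to the 2-leaf stage; pots flooded to 3 cm above soil at treatment, compound applied directly into paddy water, depth held throughout. Greenhouse 13 to 15 d, then visual evaluation against untreated controls.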"}, "[4]": {"test_system": "ragweed (common ragweed, Ambrosia elatior)", "test": "Test A postemergence ragweed", "settings": "0 to 100 scale, 0 is no effect, 100 is complete control", "summary_of_the_method": "as §1"}, "[5]": {"test_system": "foxtail, giant (giant foxtail, Setaria faberii)", "test": "Test A postemergence foxtail, giant", "settings": "0 to 100 scale, 0 is no effect, 100 is complete control", "summary_of_the_method": "as §1"}, "[6]": {"test_system": "barnyardgrass (Echinochloa crus-galli)", "test": "Test B flooded paddy test barnyardgrass", "settings": "Table B, Flood, 500 g ai/ha, scale 0 to 100", "summary_of_the_method": "as §2"}, "[7]": {"test_system": "sedge, umbrella (small-flower umbrella sedge, Cyperus difformis)", "test": "Test B flooded paddy test sedge, umbrella", "settings": "Table B, Flood, 500 g ai/ha, scale 0 to 100", "summary_of_the_method": "as §2"}, "[8]": {"test_system": "ragweed (common ragweed, Ambrosia elatior)", "test": "Test A preemergence ragweed", "settings": "0 to 100 scale, 0 no effect, 100 complete control", "summary_of_the_method": "as §1"}, "kochia (Kochia scoparia) [9]": {"test_system": "kochia (Kochia scoparia)", "test": "Test A postemergence kochia", "settings": "0 to 100 scale, 0 is no effect, 100 is complete control", "summary_of_the_method": "as §1"}, "[10]": {"test_system": "sedge, umbrella (small-flower umbrella sedge, Cyperus difformis)", "test": "Test C flooded paddy test sedge, umbrella", "settings": "Table C, Flood, scale 0 to 100", "from_the_text": "(§3) Plant species in the flooded paddy test consisted of rice (Oryza sativa), sedge, umbrella (small-flower umbrella sedge, Cyperus difformis), ducksalad (Heteranthera limosa), and barnyardgrass (Echinochloa crus-galli) grown to the 2-leaf stage for testing. At time of treatment, test pots were flooded to 3 cm above the soil surface, treated by application of test compounds directly to the paddy water, and then maintained at that water depth for the duration of the test. Treated plants and controls were maintained in a greenhouse for 13 to 15 d, after which time all species were compared to controls and visually evaluated. Plant response ratings, summarized in Table C, are based on a scale of 0 to 100 where 0 is no effect and 100 is complete control. A dash (-) response means no test result."}, "[11]": {"test_system": "barnyardgrass (Echinochloa crus-galli)", "test": "Test A preemergence barnyardgrass", "settings": "0 to 100 scale, 0 no effect, 100 complete control", "summary_of_the_method": "as §1"}, "[12]": {"test_system": "pigweed (Amaranthus retroflexus)", "test": "Test A preemergence pigweed", "settings": "0 to 100 scale, 0 no effect, 100 complete control", "summary_of_the_method": "as §1"}, "[13]": {"test_system": "wheat (Triticum aestivum)", "test": "Test A postemergence wheat", "settings": "0 to 100 scale, 0 is no effect, 100 is complete control", "summary_of_the_method": "as §1"}, "corn (Zea mays)": {"test_system": "corn (Zea mays)", "test": "Test A postemergence corn", "settings": "0 to 100 scale, 0 is no effect, 100 is complete control", "summary_of_the_method": "as §1"}, "[14]": {"test_system": "foxtail, giant (giant foxtail, Setaria faberii)", "test": "Test A preemergence foxtail, giant", "settings": "0 to 100 scale, 0 no effect, 100 complete control", "summary_of_the_method": "as §1"}, "kochia (Kochia scoparia) [15]": {"test_system": "kochia (Kochia scoparia)", "test": "Test A preemergence kochia", "settings": "0 to 100 scale, 0 no effect, 100 complete control", "summary_of_the_method": "as §1"}, "[16]": {"test_system": "pigweed (Amaranthus retroflexus)", "test": "Test A postemergence pigweed", "settings": "0 to 100 scale, 0 is no effect, 100 is complete control", "summary_of_the_method": "as §1"}, "[17]": {"test_system": "barnyardgrass (Echinochloa crus-galli)", "test": "Test C flooded paddy test barnyardgrass", "settings": "Table C, Flood, scale 0 to 100", "from_the_text": "as §3"}, "[18]": {"test_system": "blackgrass (Alopecurus myosuroides)", "test": "Test A postemergence blackgrass", "settings": "0 to 100 scale, 0 is no effect, 100 is complete control", "summary_of_the_method": "as §1"}, "rice (Oryza sativa) [19]": {"test_system": "rice (Oryza sativa)", "test": "Test B flooded paddy test rice", "settings": "Table B, Flood, 500 g ai/ha, scale 0 to 100", "summary_of_the_method": "as §2"}, "[20]": {"test_system": "ryegrass, Italian (Italian ryegrass, Lolium multiflorum)", "test": "Test A postemergence ryegrass, Italian", "settings": "0 to 100 scale, 0 is no effect, 100 is complete control", "summary_of_the_method": "as §1"}, "rice (Oryza sativa) [21]": {"test_system": "rice (Oryza sativa)", "test": "Test C flooded paddy test rice", "settings": "Table C, Flood, scale 0 to 100", "from_the_text": "as §3"}, "[22]": {"test_system": "ducksalad (Heteranthera limosa)", "test": "Test C flooded paddy test ducksalad", "settings": "Table C, Flood, scale 0 to 100", "from_the_text": "as §3"}, "[23]": {"test_system": "ryegrass, Italian (Italian ryegrass, Lolium multiflorum)", "test": "Test A preemergence ryegrass, Italian", "settings": "0 to 100 scale, 0 no effect, 100 complete control", "summary_of_the_method": "as §1"}}}
{"smiles": "O=C1NCCC(c2cccc(C(F)(F)F)c2)C1C(=O)Nc1cccc(Cl)c1F", "note": "(racemic) [Compound 16]", "values": [{"measurement": "Plant response rating, Galium", "setting": "[1]; 125 g ai/ha", "value": 20}, {"measurement": "Plant response rating, Galium", "setting": "[1]; 500 g ai/ha", "value": 20}, {"measurement": "Plant response rating, Barnyardgrass", "setting": "[2]; 125 g ai/ha", "value": 70}, {"measurement": "Plant response rating, Barnyardgrass", "setting": "[2]; 500 g ai/ha", "value": 90}, {"measurement": "Plant response rating", "setting": "[3]", "value": 0}, {"measurement": "Plant response rating, Ragweed", "setting": "[4]; 125 g ai/ha", "value": 0}, {"measurement": "Plant response rating, Ragweed", "setting": "[4]; 500 g ai/ha", "value": 0}, {"measurement": "Plant response rating, Foxtail, Giant", "setting": "[5]; 125 g ai/ha", "value": 80}, {"measurement": "Plant response rating, Foxtail, Giant", "setting": "[5]; 500 g ai/ha", "value": 80}, {"measurement": "Plant response rating", "setting": "[6]", "value": 0}, {"measurement": "Plant response rating", "setting": "[7]", "value": 0}, {"measurement": "Ragweed plant response rating", "setting": "[8]; 125 g ai/ha", "value": 0}, {"measurement": "Ragweed plant response rating", "setting": "[8]; 500 g ai/ha", "value": 0}, {"measurement": "Plant response rating, Kochia", "setting": "kochia (Kochia scoparia) [9]; 125 g ai/ha", "value": 0}, {"measurement": "Plant response rating, Kochia", "setting": "kochia (Kochia scoparia) [9]; 500 g ai/ha", "value": 20}, {"measurement": "Plant response rating", "setting": "[10]; 31 g ai/ha", "value": 0}, {"measurement": "Plant response rating", "setting": "[10]; 62 g ai/ha", "value": 0}, {"measurement": "Plant response rating", "setting": "[10]; 125 g ai/ha", "value": 0}, {"measurement": "Plant response rating", "setting": "[10]; 250 g ai/ha", "value": 0}, {"measurement": "Barnyardgrass plant response rating", "setting": "[11]; 125 g ai/ha", "value": 70}, {"measurement": "Barnyardgrass plant response rating", "setting": "[11]; 500 g ai/ha", "value": 90}, {"measurement": "Pigweed plant response rating", "setting": "[12]; 125 g ai/ha", "value": 0}, {"measurement": "Pigweed plant response rating", "setting": "[12]; 500 g ai/ha", "value": 0}, {"measurement": "Plant response rating, Wheat", "setting": "[13]; 125 g ai/ha", "value": 20}, {"measurement": "Plant response rating, Wheat", "setting": "[13]; 500 g ai/ha", "value": 30}, {"measurement": "Plant response rating, Corn", "setting": "corn (Zea mays); 125 g ai/ha", "value": 0}, {"measurement": "Plant response rating, Corn", "setting": "corn (Zea mays); 500 g ai/ha", "value": 30}, {"measurement": "Foxtail, Giant plant response rating", "setting": "[14]; 125 g ai/ha", "value": 90}, {"measurement": "Foxtail, Giant plant response rating", "setting": "[14]; 500 g ai/ha", "value": 90}, {"measurement": "Kochia plant response rating", "setting": "kochia (Kochia scoparia) [15]; 125 g ai/ha", "value": 30}, {"measurement": "Kochia plant response rating", "setting": "kochia (Kochia scoparia) [15]; 500 g ai/ha", "value": 50}, {"measurement": "Plant response rating, Pigweed", "setting": "[16]; 125 g ai/ha", "value": 0}, {"measurement": "Plant response rating, Pigweed", "setting": "[16]; 500 g ai/ha", "value": 0}, {"measurement": "Plant response rating", "setting": "[17]; 31 g ai/ha", "value": 0}, {"measurement": "Plant response rating", "setting": "[17]; 62 g ai/ha", "value": 0}, {"measurement": "Plant response rating", "setting": "[17]; 125 g ai/ha", "value": 0}, {"measurement": "Plant response rating", "setting": "[17]; 250 g ai/ha", "value": 0}, {"measurement": "Plant response rating, Blackgrass", "setting": "[18]; 125 g ai/ha", "value": 40}, {"measurement": "Plant response rating, Blackgrass", "setting": "[18]; 500 g ai/ha", "value": 60}, {"measurement": "Plant response rating", "setting": "rice (Oryza sativa) [19]", "value": 0}, {"measurement": "Plant response rating, Ryegrass, Italian", "setting": "[20]; 125 g ai/ha", "value": 0}, {"measurement": "Plant response rating, Ryegrass, Italian", "setting": "[20]; 500 g ai/ha", "value": 20}, {"measurement": "Plant response rating", "setting": "rice (Oryza sativa) [21]; 31 g ai/ha", "value": 0}, {"measurement": "Plant response rating", "setting": "rice (Oryza sativa) [21]; 62 g ai/ha", "value": 0}, {"measurement": "Plant response rating", "setting": "rice (Oryza sativa) [21]; 125 g ai/ha", "value": 0}, {"measurement": "Plant response rating", "setting": "rice (Oryza sativa) [21]; 250 g ai/ha", "value": 0}, {"measurement": "Plant response rating", "setting": "[22]; 31 g ai/ha", "value": 0}, {"measurement": "Plant response rating", "setting": "[22]; 62 g ai/ha", "value": 0}, {"measurement": "Plant response rating", "setting": "[22]; 125 g ai/ha", "value": 0}, {"measurement": "Plant response rating", "setting": "[22]; 250 g ai/ha", "value": 0}, {"measurement": "Ryegrass, Italian plant response rating", "setting": "[23]; 125 g ai/ha", "value": 20}, {"measurement": "Ryegrass, Italian plant response rating", "setting": "[23]; 500 g ai/ha", "value": 40}]}
